The test has as its target T1, human GABA A α5 receptor (α5β3γ2) (Homo sapiens, UniProt P18507+P31644).
T1 construct: expressed in transfected cells; host or cells: HEK293 cells, transiently transfected; membranes prepared from cell pellets
In words: [3H]flumazenil competition binding assay, human GABA A α5β3γ2 receptors in HEK293 cells. The conditions noted are these: human receptors transiently transfected in HEK293; 0.5 nM [3H]flumazenil; means of two determinations; read-out: hKi GABA A α5. Here is the method: Membrane Preparation and Binding Assay
The affinity of compounds at GABA A receptor subtypes was measured by competition for [^3H]flumazenil (85 Ci/mmol; Roche) binding to HEK293 cells expressing rat (stably transfected) or human (transiently transfected) receptors of composition α1β3γ2, α2β3γ2, α3β3γ2 and α5β3γ2.
Cell pellets were suspended in Krebs-tris buffer (4.8 mM KCl, 1.2 mM CaCl2, 1.2 mM MgCl2, 120 mM NaCl, 15 mM Tris; pH 7.5; binding assay buffer), homogenized by polytron for ca. 20 sec on ice and centrifuged for 60 min at 4° C. (50000 g; Sorvall, rotor: SM24=20000 rpm). The cell pellets were re-suspended in Krebs-tris buffer and homogenized by polytron for ca. 15 sec on ice. Protein was measured (Bradford method, Bio-Rad) and aliquots of 1 mL were prepared and stored at −80° C.
Radioligand binding assays were carried out in a volume of […] (96-well plates) which contained […] of cell membranes, [^3H]flumazenil at a concentration of 1 nM for α1, α2 and α3 subunits and 0.5 nM for α5 subunits and the test compound in the range of […]. Nonspecific binding was defined by 10^−5 M diazepam and typically represented less than 5% of the total binding. Assays were incubated to equilibrium for 1 hour at 4° C. and harvested onto GF/C uni-filters (Packard) by filtration using a Packard harvester and washing with ice-cold wash buffer (50 mM Tris; pH 7.5). After drying, filter-retained radioactivity was detected by liquid scintillation counting. Ki values were calculated using Excel-Fit (Microsoft) and are the means of two determinations.

Turning to `CCCCc1noc(C)c1COc1ccc(C(=O)NC2CCOC2)nn1` (racemic) [Example 8, Rac-6-(3-Butyl-5-methyl-isoxazol-4-ylmethoxy)-pyridazine-3-carboxylic acid (tetrahydro-furan-3-yl)-amide], the Ki came to 6.9 nM.

`CCCCc1noc(C)c1COc1ccc(C(=O)NC(C)C)nn1` [Example 1, 6-(3-Butyl-5-methyl-isoxazol-4-ylmethoxy)-pyridazine-3-carboxylic acid isopropylamide]: the Ki turned out to be 12.8 nM.

As to `CCCCc1noc(C)c1COc1ccc(C(=O)NC2CCOCC2)nn1` [Example 2, 6-(3-Butyl-5-methyl-isoxazol-4-ylmethoxy)-pyridazine-3-carboxylic acid (tetrahydro-pyran-4-yl)-amide], the Ki is 16.6 nM.

As to `CCCCc1noc(C)c1COc1ccc(C(=O)N[C@H](C)CO)nn1` [Example 3, 6-(3-Butyl-5-methyl-isoxazol-4-ylmethoxy)-pyridazine-3-carboxylic acid ((R)-2-hydroxy-1-methyl-ethyl)-amide], the Ki was 7 nM.

For `CCCCc1noc(C)c1COc1ccc(C(=O)NCC(C)(C)O)nn1` [Example 4, 6-(3-Butyl-5-methyl-isoxazol-4-ylmethoxy)-pyridazine-3-carboxylic acid (2-hydroxy-2-methyl-propyl)-amide], the Ki was 17.3 nM.

Regarding `CCCCc1noc(C)c1COc1ccc(C(=O)N[C@@H](C)CO)nn1` [Example 5, 6-(3-Butyl-5-methyl-isoxazol-4-ylmethoxy)-pyridazine-3-carboxylic acid ((S)-2-hydroxy-1-methyl-ethyl)-amide], the Ki amounted to 17.3 nM.

`CCCCc1noc(C)c1COc1ccc(C(=O)N[C@H]2CCOC2)nn1` [Example 6, (S)-6-(3-Butyl-5-methyl-isoxazol-4-ylmethoxy)-pyridazine-3-carboxylic acid (tetrahydro-furan-3-yl)-amide]: the Ki was 8.6 nM.

`CCCCc1noc(C)c1COc1ccc(C(=O)NC(C)CO)nn1` (stereo not drawn) [Example 7, 6-(3-Butyl-5-methyl-isoxazol-4-ylmethoxy)-pyridazine-3-carboxylic acid (2-hydroxy-1-methyl-ethyl)-amide]: the Ki turned out to be 10.4 nM.

As to `CCCCc1noc(C)c1COc1ccc(C(N)=O)nn1` [Example 9, 6-(3-Butyl-5-methyl-isoxazol-4-ylmethoxy)-pyridazine-3-carboxylic acid amide], the Ki is 7.3 nM.
